The values below come from patent publication US4329460A, “Uracil derivatives and production thereof” (Takeda Chemical Industries, Ltd., priority 1976, dated 1982).

In brackets after ≈: the same amount, converted by molar mass.

The subject of one assay is leukemia P 388. Briefly: life-prolonging effect upon leukemia P 388 in mice. To be noted: intraperitoneal, median survival time treated/control. In kind it is in vivo, BDF1 mice. The procedure: (1) The procedure of a test on the life-prolonging effect upon leukemia P 388 in mice
One tenth ml of diluted ascitic fluid containing 1×10^5 cells was implanted in BDF1 mice weighing 18 to 25 g. A suspension of the test-compound is injected intraperitoneally at a constant rate of volume of 0.1 ml/10 g body weight. As the detailed experimental method, the Protocols for Screening Chemical Agents (Geran, R. I., Greenberg, N. H., Macdonald, M. M., Schumacher, A. M., and Abbott, B. J.: Protocols for Screening Chemical Agents and Natural Products against Animal Tumors and Other Biological Systems. Cancer Chemotherapy Rept., 3 (Part 3) 7, 1972) is adopted.
The results are recorded in compliance to the T/C % value calculated on the basis of the median survival time of treated to control animals.

For the next assay, the system named is KB cells. Description: Inhibition of KB cell multiplication. In kind it is cell-based. To be noted: Homo sapiens, 72 h, cell count on 4th day after seeding, read-out: ED50, inhibition of cell growth. The protocol:
(1) Inhibition of KB cell multiplication
2×10^4 cells were suspended in 1 ml of Eagle's Minimal Essential Medium (MEM)+10% fetal calf serum (MEM.10 Fcs) and seeded in a glass dish (d=1.8 cm) containing a round coverslip (d=1.5 cm).
On the first day after seeding, three coverslips (per test group) were taken out and transferred to a single glass dish (d=4.5 cm) holding 5 ml of MEM.10 Fcs containing a verying concentration of the compound. On the 4th day after seeding, the number of cells per coverslip (3 slips for each concentration level) was determined with a Coulter counter. The result was expressed in the concentration of the drug giving a cell count of 50% (ED50) with the average number of cells for the control (not medicated) group on the 4th day being taken as 100%.

For the next assay, the system named is BAV3-infected C34 cells. Description: Inhibition of the induction of cell multiplication in BAV3-infected C34 cells. In kind it is cell-based. To be noted: Mus musculus, 96 h, (V-M) difference on 6th day after seeding, read-out: ED50, inhibition of cell growth. The protocol: (2) Inhibition of the induction of cell multiplication in BAV3-infected C34 cells
1×10^5 cells were suspended in 1 ml of Eagle's MEM+10% fetal calf serum (MEM.10 Fcs) and seeded in a glass dish (d=1.8 cm) containing a round coverslip (d=1.5 cm).
On the 2nd day after seeding, infection (37° C., 120 min.) (mock-infection or virus infection; in the case of the latter, multiplicity of infection per cell=100-200 PFU/cell) was carried out. After this operation, one test group (3 coverslips) was taken out and transferred to a glass dish (d=4.5 cm) holding 5 ml of MEM.2 Fcs containing each concentration of compound.
On the 6th day after seeding, the number of cells per coverslip was determined with a Coulter counter. For each experimental group, the difference in all members between virus-infected cells (V) and mock-infected cells (M) was calculated. The result was expressed in the concentration of the drug giving a (V-M) value of 50% (ED50) for the control (not medicated) group as 100%.

Another assay deals with AC cells. Briefly: Inhibition of AC cell multiplication. In kind it is cell-based. To be noted: Rattus norvegicus, 72 h, cell count on 3rd day following replacement of medium, read-out: ED50, inhibition of cell growth. The procedure:
(3) Inhibition of Ac cell multiplication
1×10^5 AC cells (2 ml of Eagle's MEM, with 10% fetal calf serum were seeded in a Falcon dish (in. diam. 3.5 cm). On the 24th hour, replacement was made with the above culture medium containing a varying concentration of drug. The number of cells was determined on the 3rd day following the replacement of medium. The pharmacologic effect was expressed in ED50 (the concentration of the drug giving a cell count of 50% for the treated group with the number of cells for the control group being taken as 100%.

For `COC(=O)C1(F)C(=O)NC(=O)NC1OC` (centres unmarked) [methyl 5-fluoro-6-methoxy-1,2,3,4,5,6-hexahydro-2,4-dioxopyrimidine-5-carboxylate], the “T/C(%)” value stood at 208% with leukemia P 388 (50 mg/kg/day), 217% in the assay on leukemia P 388 (100 mg/kg/day) and 243% in the assay with leukemia P 388 (200 mg/kg/day). Besides, the values for the IC50 with KB cells, in the assay with BAV3-infected C34 cells and in the assay on AC cells were 3 µg/mL (≈ 13.6 µM), 0.023 µg/mL (≈ 0.104 µM) and 0.12 µg/mL (≈ 0.545 µM), respectively.

Take `CCOC(=O)C1(F)C(=O)NC(=O)NC1OCC` (centres unmarked) [ethyl 5-fluoro-6-ethoxy-1,2,3,4,5,6-hexahydro-2,4-dioxopyrimidine-5-carboxylate]: the figures for the “T/C(%)” value in the assay with leukemia P 388 (50 mg/kg/day), with leukemia P 388 (100 mg/kg/day) and in the assay on leukemia P 388 (200 mg/kg/day) were 130%, 143% and 160%, respectively. In addition, the IC50 with KB cells worked out at 2.8 µg/mL (≈ 11.3 µM); in the assay with BAV3-infected C34 cells, 0.023 µg/mL (≈ 0.0927 µM).
